Results on one compound are retold here after patent US7906514B1, “Animal model and compounds identified via this model for treatment of chronic pain” (Trustees of Dartmouth College, priority 1999, dated 2011).

The subject of data set [1] is OX-42 and GFAP (glial fibrillary acidic protein). The data set is described as follows: Immunohistochemical analysis of spinal glial activation. It is filed as in vivo, rat. The note with it: methotrexate-treated groups vs saline-treated groups; L5 spinal cord sections. The method, then:
All animals were perfusion fixed for immunohistochemistry. Under deep anesthesia (sodium pentobarbital, 50 mg/kg intraperitoneally) rats were euthanized by transcardiac perfusion. Rats were then perfused with 300 ml phosphate buffered saline (PBS) followed by 500 ml 4% paraformaldehyde in 0.1 M PBS. Following perfusion and laminectomy, the lesioned L5 roots were verified and traced to their site of entry into the spinal cord. Appropriate L5 spinal cord segments were harvested and post fixed for 4 hours in fixative and then cryoprotected 2-3 days in 30% sucrose/PBS at 4° C. The segments were then freeze-mounted in OCT embedding medium on cork blocks for cryostat sectioning.
Optimal dilutions and incubation time periods for each antibody and lot were determined prior to the study. Immunohistochemistry was performed with the avidin-biotin technique on free-floating 20 μm sections. Elimination of the primary antibody was performed in each run as a negative control. Monoclonal antibody OX-42 (labeling the complement receptor-3, CDllb) was used as a microglial marker at a dilution of […]. A rabbit polyclonal antibody to glial fibrillary protein (anti-GFAP, DAKO, Carpintra, Calif.) was used as an astrocytic marker at a dilution of 1:20,000. Five or more sections per animal were prepared from the L5 segments in each run. […]

For data set [2] the following is noted: dose without acute neurotoxic effects; Morris et al. 1992; cited from earlier work.
For data set [3], the system named is rat model for lower back pain (L5 spinal root loosely ligated with chromic gut). Kind of data set: Mechanical sensitivity (allodynia) testing with von Frey filaments after L5 spinal root injury. It is filed as in vivo. An excerpt:
(§1) The first phase of the study investigated three combinations of treatments: 1) Group A—methotrexate administration locally (intrathecally) to the surgical area immediately following surgery, followed by additional methotrexate administration locally at days 2 and 4 post-surgery; 2) Group B—saline administration locally to the surgical area immediately following surgery and at days 2 and 4 post-surgery; and 3) Group C—sham-operated animals that received methotrexate at the same time points. In all animals, gait disturbance and mechanical allodynia were assessed until animals were euthanized 7 days after surgery.
In the second phase of the study, animals were assessed out to day 14 post-surgery and given additional treatments as follows: 1) Group D—surgically prepared, saline treated rats were then given methotrexate locally during the second week of the study on days 7, 9, and 11 post-surgery; 2) Group E—surgically prepared, saline treated rats were then given saline locally during the second week on days 7, 9, and 11 post-surgery; and 3) Group F—surgically prepared, methotrexate treated rats were then given saline during the second week on days 7, 9, and 11 post-surgery. Gait disturbance and mechanical allodynia were assessed before surgery and at days 2, 4, 7, 9, 11, and 14 until euthanization.
(§2) Male Holtzman rats (200-250 g) were used. All surgical procedures were performed under inhalation anesthesia (induced at 4% and maintained at 2% halothane in 100% O2). Spinal root, dorsal root ganglia, and the adjacent dura mater on the left side at L5 were carefully exposed by hemilaminectomy using a surgical microscope. Five 0.3 cm pieces of 4-0 chromic gut ligature were laid adjacent to the root and secured by two loose ligatures of 5-0 chromic gut. The muscle layers and incision were closed with 3-0 silk suture and staples, respectively.
For phase I, three combinations of treatments were investigated. Methotrexate was reconstituted to 10 mg/ml in saline and pH adjusted to 7.4. Group A represented root injury plus methotrexate treatment. Immediately following surgery and prior to incision closure, Group A rats received 1 mg/kg of methotrexate (volume 100 ul/kg) by injecting through a PE-10 catheter through an incision in the exposed dura mater to a position 3 cm central to the incision. The PE-10 catheter was pulled out and the same dose and volume of methotrexate (1 mg/kg) was administered around the injured nerve roots (total dose 2 mg/kg). The wound was closed. On days 2 and 4 post-surgery, under inhalation anesthesia, methotrexate was again administered by opening the surgical wound and repeating delivery of methotrexate as before.
Group C animals represented sham-operated plus methotrexate treatment. In these animals, the L5 nerve roots were exposed but not injured. Methotrexate was administered using the same dose, protocol, and time points as Group A.
For phase II of the study, the protocol was extended to day 14 with the surgery, delivery method, volume and doses being identical to those of the phase I study. Rats were divided into 3 groups. Group D represented saline plus methotrexate treatment. Saline was administered at the time of surgery and at days 2 and 4 post-surgery. Methotrexate was administered in the second week at days 7, 9 and 11 post-surgery.
Group F represented methotrexate plus saline treatment. In these rats, methotrexate was administered during surgery and at days 2 and 4 post-surgery. Saline was then administered on days 7, 9, and 11 post-surgery. Gait disturbance and mechanical allodynia were also assessed in these animals at days 2, 4, 7, 9, 11 and 14 (day of euthanization).
Animals were tested for 3 days pre-operatively to acclimate to the testing apparatus and the experimenter, and to obtain baseline values. All testing was performed by experimenters blinded to the treatments.

Data set [4] shares this test system. The data set is described as follows: Gait disturbance and hind paw inversion testing after L5 spinal root injury. In kind it is in vivo. The note with it: phase I.
Source text: as §1, with “surgery. […]” for “surgery.”
as §2
For phase I, three combinations of treatments were investigated. Methotrexate was reconstituted to 10 mg/ml in saline and pH adjusted to 7.4. Group A represented root injury plus methotrexate treatment. […]

Data set [5] shares this test system. The data set is described as follows: Gross pathological inspection of injured nerve roots following euthanasia. In kind it is in vivo. The note with it: methotrexate-treated groups (A, D and F) compared to saline-treated groups (B and E). The method, then: In all groups except the sham-operated animals (Group C), the treated nerve roots were encapsulated with dense granulation tissue and fibrous adhesions.
as §2
For phase I, three combinations of treatments were investigated. Methotrexate was reconstituted to 10 mg/ml in saline and pH adjusted to 7.4. Group A represented root injury plus methotrexate treatment. Immediately following surgery and prior to incision closure, Group A rats received 1 mg/kg of methotrexate (volume 100 ul/kg) by injecting through a PE-10 catheter through an incision in the exposed dura mater to a position 3 cm central to the incision. […]
Group F represented methotrexate plus saline treatment. […] Gait disturbance and mechanical allodynia were also assessed in these animals at days 2, 4, 7, 9, 11 and 14 (day of euthanization).

In the case of `CN(Cc1cnc2nc(N)nc(N)c2n1)c1ccc(C(=O)N[C@@H](CCC(=O)O)C(=O)O)cc1` [methotrexate, Methotrexate], the “level of glial activation (OX-42, GFAP)” value in data set [1] is “significant difference”. The “administered dose (1 mg/kg) as fraction of the maximally tolerated dose for rats” value in data set [2] is on record as “one quarter”. The “mechanical allodynia, overall conclusion” value in data set [3] (lower back pain model with radiculopathy, local administration) is recorded as “significantly attenuates”. For the same compound, the mechanical allodynia entry in data set [3] (phase I, Group A (injury+methotrexate at surgery, days 2 and 4), toward baseline after peak at day 2, to day 7) was “significantly reduced”. The “mechanical allodynia response after surgery” value in data set [3] (phase I, Group C (sham-operated+methotrexate)) was “minimal (minimal (0-5))”. In data set [3] (phase II, Group D (saline in week 1, methotrexate on days 7, 9, 11), existing allodynia, Group E (saline) persisted), the “mechanical allodynia during the second week” value is listed as “significantly decreased”. Besides, the “allodynia at day 7 post-surgery” value in data set [3] (phase II, Group F (methotrexate at surgery, days 2 and 4) compared to Groups D and E) is recorded as “significantly attenuated”. Further, in data set [3] (phase II, Group F compared to Group E), the “allodynic response during the second week” value is “significantly lower”. Moreover, the “postoperative changes in hind paw inversion or gait disturbance” value in data set [4] (Group A (injury+methotrexate, 1 mg/kg intrathecal + 1 mg/kg perineural at surgery, days 2 and 4) vs Group B (saline)) is reported as “no significant difference”. Moreover, the “hind paw inversion or gait disturbance” value in data set [4] (Group C, sham-operated + methotrexate at surgery, days 2 and 4) was “did not demonstrate any hind paw inversion or gait disturbance”. Also, the “granulation and adhesion around the injured nerve roots” value in data set [5] is on record as “markedly decreased”.
